From patent US9573966B2, “Anti-cancer activity of novel bicyclic heterocycles” (Katholieke Universiteit Leuven, K.U.Leuven R&D, priority 2010, dated 2017)

tested on: HSB-2 cells; assay: Inhibition of HSB-2 leukemic cell line proliferation (WST-1); assay type: cell-based, human; settings: Homo sapiens, HSB2, 48 h, cytotoxicity on HSB-2 cells, two days incubation, WST-1 read-out
Experimental: HSB2 cell line, a human acute lymphoblastic leukemia (ATCC; CCL-120.1) cell line, was grown in RPMI-1640 medium (Lonza, Belgium) supplemented with 10% fetal calf serum (Hyclone, US) and antibiotics. Exponential growing phase cells were seed in flat bottom 96-well microplates (TTP, Switzerland) at 50000 cells per well in 220 μl of medium with compounds (in different concentrations) and incubated for two days at 37° C., 5% CO2. After incubation, 100 μl of supernatant were removed and 10 μl of WST-1 (Roche, Switzerland) were added. After 2 hour incubation at 37° C., 5% CO2, optical densities were measured at 450 nm. Proliferation is calculated with respect of control points (no compound and treatment with Triton X100 to have maximum and minimum proliferation data). The IC50 was determined from a graph with at least four points, each derived from the mean of at least 2 experiments. […] The results are shown in Table 1 for a number of compounds.

`Nc1nc(N2CCN(C(=O)COc3ccc(O)cc3)CC2)c2nc(CCc3ccc(F)cc3)sc2n1` [Example 224, 1-(4-(5-amino-2-(4-fluorophenethyl)thiazolo[5,4-d]pyrimidin-7-yl)piperazin-1-yl)-2-(4-hydroxyphenoxy)ethanone] was tested. Which IC50 did it give?
Its IC50 is 3.94 µM.

Which IC50 does the source give for `Nc1nc(N2CCN(C(=O)COc3ccc(Br)cc3)CC2)c2nc(Cc3ccc(F)cc3)sc2n1` [Example 231, 1-(4-(5-amino-2-(4-fluorobenzyl)thiazolo[5,4-d]pyrimidin-7-yl)piperazin-1-yl)-2-(4-bromophenoxy)ethanone] here?
The IC50 was 2.63 µM.

For `COc1ccc(OCC(=O)N2CCN(c3nc(N)nc4sc(CCc5ccc(Br)cc5)nc34)CC2)cc1` [Example 298, 1-(4-(5-amino-2-(4-bromophenethyl)thiazolo[5,4-d]pyrimidin-7-yl)piperazin-1-yl)-2-(4-methoxyphenoxy)ethanone], which IC50 is on record?
The IC50 was over 10 µM.

How did the IC50 turn out when `Nc1nc(N2CCN(C(=O)COc3ccc(F)cc3)CC2)c2nc(-c3ccc(F)cc3)sc2n1` [Example 233, 1-(4-(5-amino-2-(4-fluorophenyl)thiazolo[5,4-d]pyrimidin-7-yl)piperazin-1-yl)-2-(4-fluorophenoxy)ethanone] was run?
Its IC50 is over 10 µM.

For `Nc1nc(N2CCN(C(=O)COc3ccc(Cl)cc3)CC2)c2nc(CCCCc3ccc(F)cc3)sc2n1` [Example 292, 1-(4-(5-amino-2-(4-(4-fluorophenyl)butyl)thiazolo[5,4-d]pyrimidin-7-yl)piperazin-1-yl)-2-(4-chlorophenoxy)ethanone], which IC50 is on record?
Its IC50 is 9.79 µM.

`COc1ccc(OCC(=O)N2CCN(c3nc(N)nc4sc(-c5ccc(F)cc5)nc34)CC2)cc1` [Example 234, 1-(4-(5-amino-2-(4-fluorophenyl)thiazolo[5,4-d]pyrimidin-7-yl)piperazin-1-yl)-2-(4-methoxyphenoxy)ethanone] was tested. Which IC50 did it give?
Its IC50 is 0.2 µM.

`COc1ccc(CCc2nc3c(N4CCN(C(=O)COc5ccc(Br)cc5)CC4)nc(N)nc3s2)cc1OC` [Example 256, 1-(4-(5-amino-2-(3,4-dimethoxyphenethyl)thiazolo[5,4-d]pyrimidin-7-yl)piperazin-1-yl)-2-(4-bromophenoxy)ethanone] was tested. Which IC50 did it give?
Its IC50 is over 10 µM.

How did the IC50 turn out when `Nc1nc(N2CCN(C(=O)COc3ccc(Cl)cc3)CC2)c2nc(-c3ccccc3)sc2n1` [Example 215, 1-(4-(5-amino-2-phenylthiazolo[5,4-d]pyrimidin-7-yl)piperazin-1-yl)-2-(4-chlorophenoxy)ethanone] was run?
Its IC50 is 0.24 µM.

How did the IC50 turn out when `Cc1ccc(CCc2nc3c(N4CCN(C(=O)COc5ccc(Cl)cc5)CC4)nc(N)nc3s2)cc1` [Example 260, 1-(4-(5-amino-2-(4-methylphenethyl)thiazolo[5,4-d]pyrimidin-7-yl)piperazin-1-yl)-2-(4-chlorophenoxy)ethanone] was run?
Its IC50 is 4.49 µM.

`Nc1nc(N2CCN(C(=O)COc3ccc(Br)cc3)CC2)c2cc(-c3ccccc3)sc2n1` [Example 372, 1-(4-(2-amino-6-phenylthieno[2,3-d]pyrimidin-4-yl)piperazin-1-yl)-2-(4-bromophenoxy)ethanone] was tested. Which IC50 did it give?
The IC50 was 9.87 µM.

Which IC50 does the source give for `COc1ccc(OCC(=O)N2CCN(c3nc(N)nc4sc(CCCc5ccc(F)cc5)nc34)CC2)cc1` [Example 291, 1-(4-(5-amino-2-(3-(4-fluorophenyl)propyl)thiazolo[5,4-d]pyrimidin-7-yl)piperazin-1-yl)-2-(4-methoxyphenoxy)ethanone] here?
The IC50 was over 10 µM.

With `Nc1nc(N2CCN(C(=O)COc3ccc(Cl)cc3)CC2)c2nc(CCCc3ccc(F)cc3)sc2n1` [Example 290, 1-(4-(5-amino-2-(3-(4-fluorophenyl)propyl)thiazolo[5,4-d]pyrimidin-7-yl)piperazin-1-yl)-2-(4-chlorophenoxy)ethanone] as the compound, how does the IC50 read?
Its IC50 is over 10 µM.

How did the IC50 turn out when `Cc1ccc(-c2nc3c(N4CCN(C(=O)COc5ccc(Cl)cc5)CC4)nc(N)nc3s2)cc1` [Example 295, 1-(4-(5-amino-2-p-tolylthiazolo[5,4-d]pyrimidin-7-yl)piperazin-1-yl)-2-(4-chlorophenoxy)ethanone] was run?
Its IC50 is 0.23 µM.

How did the IC50 turn out when `O=C(COc1ccc(Cl)cc1)N1CCN(c2ncnc3sc(-c4ccc(F)cc4)nc23)CC1` [Example 301, 1-(4-(2-(4-fluorophenyl)thiazolo[5,4-d]pyrimidin-7-yl)piperazin-1-yl)-2-(4-chlorophenoxy)ethanone] was run?
Its IC50 is 2.06 µM.

How did the IC50 turn out when `COc1cccc(CCc2nc3c(N4CCN(C(=O)COc5ccc(Cl)cc5)CC4)nc(N)nc3s2)c1` [Example 255, 1-(4-(5-amino-2-(3-methoxyphenethyl)thiazolo[5,4-d]pyrimidin-7-yl)piperazin-1-yl)-2-(4-chlorophenoxy)ethanone] was run?
The IC50 was 2.1 µM.

`COc1cccc(CCc2nc3c(N4CCN(C(=O)COc5ccc(Br)cc5)CC4)nc(N)nc3s2)c1` [Example 254, 1-(4-(5-amino-2-(3-methoxyphenethyl)thiazolo[5,4-d]pyrimidin-7-yl)piperazin-1-yl)-2-(4-bromophenoxy)ethanone] was tested. Which IC50 did it give?
The IC50 was over 10 µM.

How did the IC50 turn out when `COC(=O)c1ccc(OCC(=O)N2CCN(c3nc(N)nc4sc(CCc5ccc(F)cc5)nc34)CC2)cc1` [Example 225, methyl 4-(2-(4-(5-amino-2-(4-fluorophenethyl)thiazolo[5,4-d]pyrimidin-7-yl)piperazin-1-yl)-2-oxoethoxy)benzoate] was run?
The IC50 was over 10 µM.

Which IC50 does the source give for `COc1ccc(OCC(=O)N2CCN(c3nc(N)nc4sc(CCc5cccc(OC)c5)nc34)CC2)cc1` [Example 253, 1-(4-(5-amino-2-(3-methoxyphenethyl)thiazolo[5,4-d]pyrimidin-7-yl)piperazin-1-yl)-2-(4-methoxyphenoxy)ethanone] here?
Its IC50 is 4.99 µM.

`COc1ccc(OCC(=O)N2CCN(c3nc(N)nc4sc(Cc5ccc(F)cc5)nc34)CC2)cc1` [Example 230, 1-(4-(5-amino-2-(4-fluorobenzyl)thiazolo[5,4-d]pyrimidin-7-yl)piperazin-1-yl)-2-(4-methoxyphenoxy)ethanone] was tested. Which IC50 did it give?
The IC50 was 2.21 µM.

Which IC50 does the source give for `Nc1nc(N2CCN(C(=O)COc3ccc(F)cc3)CC2)c2cc(-c3ccccc3)sc2n1` [Example 370, 1-(4-(2-amino-6-phenylthieno[2,3-d]pyrimidin-4-yl)piperazin-1-yl)-2-(4-fluorophenoxy)ethanone] here?
The IC50 was 6.38 µM.

Which IC50 does the source give for `CC(=O)c1ccc(OCC(=O)N2CCN(c3nc(N)nc4sc(CCc5ccc(F)cc5)nc34)CC2)cc1` [Example 227, 2-(4-acetylphenoxy)-1-(4-(5-amino-2-(4-fluorophenethyl)thiazolo[5,4-d]pyrimidin-7-yl)piperazin-1-yl)ethanone] here?
Its IC50 is over 10 µM.

Which IC50 does the source give for `COc1ccc(OCC(=O)N2CCN(c3nc(N)nc4sc(-c5ccc(C)cc5)nc34)CC2)cc1` [Example 294, 1-(4-(5-amino-2-p-tolylthiazolo[5,4-d]pyrimidin-7-yl)piperazin-1-yl)-2-(4-methoxyphenoxy)ethanone] here?
Its IC50 is 4.16 µM.

With `Nc1nc(N2CCN(C(=O)COc3ccc(Cl)cc3)CC2)c2nc(CCc3ccc(Br)cc3)sc2n1` [Example 299, 1-(4-(5-amino-2-(4-bromophenethyl)thiazolo[5,4-d]pyrimidin-7-yl)piperazin-1-yl)-2-(4-chlorophenoxy)ethanone] as the compound, how does the IC50 read?
The IC50 was 3.72 µM.

same assay, conditions: cytotoxicity on HSB-2 cells, two days incubation, WST-1 read-out

Which IC50 does the source give for `Nc1nc(N2CCN(C(=O)COc3ccc(Br)cc3)CC2)c2nc(-c3ccc(F)cc3)sc2n1` [Example 235, 1-(4-(5-amino-2-(4-fluorophenyl)thiazolo[5,4-d]pyrimidin-7-yl)piperazin-1-yl)-2-(4-bromophenoxy)ethanone] here?
The IC50 was 0.55 µM.
